Common to all, as to type: cell-based, mouse
One assay has as its system NFATc1. Kind of assay: NFAT translocation assay. The settings on record: control cells (Ad-βgal), 24 hours. Here is the method:
MEFs were plated on coated 35-mm dishes and infected with Ad-NFATc1-GFP for 24 hours at which time live-cell images were taken followed by treatment with 10 ng m1^1 TGFP or 10 μM AngII for 24 hours. For live-cell imaging, cells were placed in a 37° C. heated chamber on a Carl Zeiss Axio Observer Z1 fluorescent microscope. Prior to imaging, MEFs were incubated with Hoechst 33342 to demarcate cell nuclei. Images were acquired in the green channel (490ex/525em) and blue channel (350ex/460em). NFAT localization was quantified as the nuclear/cytoplasmic ratio of GFP fluorescence. More than 50 cells per dish were analyzed.

The subject of assay [1] is MEFs. The assay is described as follows: ECAR and OCR measurements (Seahorse XF96) in MEFs. Here is the method:
(§1) Myofibroblast differentiation was induced using 10 ng ml^−1 recombinant mouse Transforming growth factor-β (TGFβ) or 10 μM Angiotensin II (AngII,). In all experiments, FBS was reduced to 1% 24 hours prior to and during treatment with TGFβ or AngII.
A Seahorse Bioscience XF96 extracellular flux analyzer was employed to measure extracellular acidification rates (ECAR) and oxygen consumption rates (OCR). ECAR was measured using the Glycolytic Stress Test Kit and OCR was measured using the Miro Stress Test Kit. To evaluate ECAR, 20,000 MEFs/well were plated in XF media pH 7.4 without supplementation. […] To evaluate OCR, 20,000 MEFs/well were plated in XF media pH 7.4 supplemented with 10 mM glucose and 1 mM sodium pyruvate. […] After each experiment, protein concentration was measured and wells were normalized using the Wave software.

In another assay the test system is PDH E1α. Kind of assay: Western blot of phosphorylated PDH. As to conditions: MEFs, 0, 24, 48, or 72 h. On the procedure: (§2) All protein samples were lysed by homogenization in RIPA buffer supplemented with phosphatase inhibitors and protease inhibitors. Samples were sonicated briefly and centrifuged at 5,000 g for 10 minutes. The supernatant was collected and used for further analysis. Protein amount was quantified using the Bradford Protein Assay and equal amounts of protein (10-50 μg) were run by electrophoresis on polyacrylamide Tris-glycine SDS gels. Gels were transferred to PVDF and membranes were blocked for 1 hour in Blocking Buffer followed by incubation with primary antibody overnight at 4° C. Membranes were washed in TBS-T 3 times for 5 minutes each and then incubated with secondary antibody for 1 hour at room temperature. After incubation with fluorescent secondary antibodies, membranes were washed in TB S-T 3 times for 5 minutes each and then imaged on a Licor Odyssey system. The following antibodies were used in the study: MCU (1:1,000), MCUb (1:250,), MICU1 (1:500,), MCUR1 (1:500), EMRE (1:250, Santa Cruz, sc-86337), VDAC (1:1,000), PDHE1α phospho 5293 (1:1,000), PDHE1α (1:1,000,), IDH3A (1:500), α-tubulin (1:1,000), ETC respiratory chain complexes (1:2,500), H3K4me3 (1:2,000), H3K9me3 (1:2,000), H3K27me3 (1:2,000), H3K4me2 (1:2,000), H3K9me2 (1:2,000), H3K27me2 (1:2,000), H3 (1:2000); and secondary antibodies: anti-mouse (1:12,000), anti-rabbit, (1:12,000), and anti-goat (1:12,000).

In the next assay the test system is 5-methylcytosine (5-mC). Kind of assay: Global DNA methylation ELISA. The settings on record: MEFs. Here is the method: To extract genomic DNA, cells were collected and washed with PBS followed by 2 h incubation at 60° C. in DNA isolation buffer (0.5% SDS, 100 mM NaCl, 50 mM Tris pH 8, 3 mM EDTA, 0.1 mg/mL proteinase K). DNA was extracted using chloroform followed by ethanol precipitation and dissolved in double-distilled water. DNA methylation was quantified using the MethylFlash™ Methylated DNA Quantification Kit. 100 nanograms of input DNA was used per reaction. Absorbance at 450-nm was measured using a Tecan Infinite F50 microplate reader.

The next assay relates to MICU1. The assay is described as follows: Western blot of mtCU components in WT MEFs. Here is the method:
as §1, §2
Background: Immunoblotting shows a protein as a band on a membrane.

Assay [2] deals with MEFs. Kind of assay: Metabolomic profiling of MEFs (CE-TOFMS, CE-QqQMS). On the procedure: Cells in a 10 cm dish were washed with 5% (w/w) mannitol (10mL for the first wash, 2 mL for the second wash) and extracted in 800 μL methanol plus 550 μL internal standard solution (Human Metabolome Technologies, HMT). Extracted solution was spun down at 2,300×g at 4° C. for 5 minutes. The supernatant was transferred into centrifugal filter units (HMT) and centrifuged at 9,100×g at 4° C. for ˜3.5 h until no liquid remained in the filter cup. Filtrate was frozen at −80° C. and shipped to HMT for analysis by CE-TOFMS and CE-QqQMS (Boston, Mass.). Filtrate was centrifugally concentrated and resuspended in 50 μl of ultrapure water immediately before the measurement.
Cationic metabolites were analyzed using an Agilent CE-TOFMS system Machine No. 3 and a fused silica capillary (i.d. 50 μm×80 cm) with Cation Buffer Solution as the electrolyte. The sample was injected at a pressure of 50 mbar for 10 seconds. The applied voltage was set at 27 kV. Electrospray ionization-mass spectrometry (ESI-MS) was conducted in the positive ion mode, and the capillary voltage was set at 4,000 V. The spectrometer was scanned from m/z 50 to 1,000.
Anionic metabolites were analyzed using an Agilent Capillary Electrophoresis System equipped with an Agilent 6460 TripleQuad LC/MS Machine No. QqQ3 and a fused silica capillary (i.d. 50 μm×80 cm) with Anion Buffer Solution as the electrolyte. The sample was injected at a pressure of 50 mbar for 25 seconds. The applied voltage was set at 30 kV. ESI-MS was conducted in the positive and negative ion mode, and the capillary voltage was set at 4,000 V for positive and 3, 500 V for negative mode.
Peaks detected in CE-TOFMs analysis were extracted using automatic integration software and those in CE-QqQMS analysis were extracted using automatic integration software in order to obtain peak information including m/z, migration time, and peak area. The peak area was then converted to relative peak area by the following equation: Relative peak area=Metabolite Peak Area/(Internal Standard Peak Area x Normalization Factor). The peaks were annotated based on the migration times in CE and m/z values determined by TOFMS. Putative metabolites were then assigned from HMT metabolite database on the basis of m/z and migration time. All metabolite concentrations were calculated by normalizing the peak area of each metabolite with respect to the area of the internal standard and by using standard curves, which were obtained by three-point calibrations. A heat map was generated using ClustVis. Unit variance was applied to rows. Rows were clustered using Manhattan distance and average linkage.

Take “TGFβ: recombinant mouse Transforming growth factor-β, pro-fibrotic agonist”: the “nuclear translocation of NFATc1” value in the assay on NFATc1 is given as “induced nuclear translocation of NFATc1”. The “increase in glycolysis from baseline” value with MEFs [1] (at peak (TGFβ 48 hours, AngII ~12 hours)) was greater than 400%. Besides, the “increase in basal respiration from baseline” value in the assay on MEFs [1] (peaking 48 hours after treatment) was roughly 135%. In addition, the “ratio of p-PDH E1α/PDH” value in the assay with PDH E1α is on record as “increased”. Moreover, the “global DNA methylation” value with 5-methylcytosine (5-mC) is “Slight, but non-significant, decreases”. In addition, the MICU1/MCU ratio entry with MICU1 is recorded as “rapidly increased”. Also, the MICU1 expression result in the assay with MICU1 (12 hours after treatment) is given as “dramatic increase”. The “α-ketoglutarate (αKG)” value in the assay on MEFs [2] (12 h after treatment) is on record as “increased”. Moreover, in the assay on MEFs [2] (12 h post-treatment), the “F-1,6-BP” value is on record as “significantly increased” and the citrate levels result is given as “significantly reduced”. The substance also registered a pyruvate with MEFs [2] (control MEFs 12 h post-treatment, from 1000 at baseline) of 1600 pmol/million cells. The “glutamine (Gln) and glutamate (Glu) levels” value in the assay on MEFs [2] (control cells) is “decreased”. Also, the “increase in αKG” value in the assay on MEFs [2] (treated fibroblasts) is reported as roughly 2 fold.

Source of the values: patent US20210330744A1, “Methods and Compositions for Treating Neurodegeneration and Fibrosis” (Temple University-Of The Commonwealth System of Higher …, priority 2017, published 2021).
